Data on 24 compounds can be found in PubChem BioAssay AID330 (DTP/NCI, 2004).

Values joined by “and” are separate entries in the source; they are usually repeats but may differ in a detail not shown here. Equal entries are not always repeated. Inconclusive results and toxic doses are left out.

This assay has as its system P388 leukemia ip, CD2F1 mice, survival T/C. Description: NCI In Vivo Anticancer Drug Screen. Data for tumor model P388 Leukemia (intraperitoneal) in CD2F1 (CDF1) mice. Conditions: endpoint: median survival time, higher = longer survival. The method in brief: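 Mice carrying the transplanted tumor received test compound or vehicle. Survival was recorded in each group, and the value is the treated-group measurement divided by that of the vehicle-treated control group.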

[1] abbreviates: dose: 60.0 mg/kg/injection, schedule: Q01DX005 (ip), vehicle: saline with Tween-80.
Setting [2] is: dose: 50.0 mg/kg/injection, schedule: Q01DX005 (ip), vehicle: Klucel (hydroxypropylcellulose) (HPC).
Setting [3] is: dose: 100.0 mg/kg/injection, schedule: Q01DX005 (ip), vehicle: Klucel (hydroxypropylcellulose) (HPC).
The mark [4] stands for this setting: dose: 100.0 mg/kg/injection, schedule: Q01DX009 (ip), vehicle: Klucel (hydroxypropylcellulose) (HPC).
The mark [5] stands for this setting: dose: 200.0 mg/kg/injection, schedule: Q01DX009 (ip), vehicle: Klucel (hydroxypropylcellulose) (HPC).
The mark [6] stands for this setting: dose: 50.0 mg/kg/injection, schedule: Q01DX009 (ip), vehicle: Klucel (hydroxypropylcellulose) (HPC).
Where [7] appears, read: dose: 60.0 mg/kg/injection, schedule: Q01DX005 (ip), vehicle: Klucel (hydroxypropylcellulose) (HPC).
The mark [8] stands for this setting: dose: 120.0 mg/kg/injection, schedule: Q01DX005 (ip), vehicle: Klucel (hydroxypropylcellulose) (HPC).
Where [9] appears, read: dose: 240.0 mg/kg/injection, schedule: Q01DX005 (ip), vehicle: Klucel (hydroxypropylcellulose) (HPC).
[10] abbreviates: dose: 50.0 mg/kg/injection, schedule: Q01DX005 (ip), vehicle: saline with Tween-80.
Setting [11] is: dose: 100.0 mg/kg/injection, schedule: Q01DX005 (ip), vehicle: saline with Tween-80.
Where [12] appears, read: dose: 200.0 mg/kg/injection, schedule: Q01DX005 (ip), vehicle: Klucel (hydroxypropylcellulose) (HPC).
The mark [13] stands for this setting: dose: 120.0 mg/kg/injection, schedule: Q01DX005 (ip), vehicle: saline with Tween-80.

Regarding `COc1cccc2c1C(=O)c1c(O)c3c(c(O)c1C2=O)CC(O)(C(=O)CO)CC3OC1CC(NCC2(O)OCC(O)C(O)C2O)C(O)C(C)O1` (stereo unspecified), the T/C is 179 % of control (dose: 14.5 mg/kg/injection, schedule: Q04DX003 (ip), vehicle: water); 239 % of control (dose: 29.0 mg/kg/injection, schedule: Q04DX003 (ip), vehicle: water); 116 % of control (dose: 58.0 mg/kg/injection, schedule: Q04DX003 (ip), vehicle: water).

Consider `C=CCN1CCC23c4c5ccc(O)c4OC2C(=NN=C2CCC4(O)C6Cc7ccc(O)c8c7C4(CCN6CC=C)C2O8)CCC3(O)C1C5` (stereo unspecified), for which the T/C was 92 % of control (dose: 15.0 mg/kg/injection, schedule: Q01DX005 (ip), vehicle: saline with Tween-80); 90 % of control (dose: 30.0 mg/kg/injection, schedule: Q01DX005 (ip), vehicle: saline with Tween-80); 100 % of control and 101 % of control under setting [1].

Consider `Cc1oc2c(c(=O)c1C)C1CCC(C2)N1C` (stereo unspecified), for which the T/C under setting [2] was 106 % of control and the T/C under setting [3] is 97 % of control.

For `CC(=O)NC1=CC(=Nc2ccc(N(C)C)cc2)C=CC1=O`, the T/C is, setting by setting: (dose: 3.12 mg/kg/injection, schedule: Q01DX005 (ip), vehicle: saline) 114 % of control; (dose: 6.25 mg/kg/injection, schedule: Q01DX005 (ip), vehicle: saline) 112 % of control; (dose: 12.5 mg/kg/injection, schedule: Q01DX005 (ip), vehicle: saline) 102 % of control.

With `O=C(OC1COC(Br)C(OC(=O)c2ccccc2)C1OC(=O)c1ccccc1)c1ccccc1` (stereo unspecified), the T/C was 100 % of control under setting [4]; 100 % of control under setting [5]; 90 % of control (dose: 400.0 mg/kg/injection, schedule: Q01DX009 (ip), vehicle: Klucel (hydroxypropylcellulose) (HPC)).

With `O=C(OC1C(O)OC2COC(=O)c3cc(O)c(O)c(O)c3-c3c(cc(O)c(O)c3O)C(=O)OC2C1O)c1cc(O)c(O)c(O)c1` (stereo unspecified), the T/C (dose: 3.75 mg/kg/injection, schedule: Q01DX009 (ip), vehicle: saline with Tween-80) is 97 % of control; the T/C (dose: 7.5 mg/kg/injection, schedule: Q01DX009 (ip), vehicle: saline with Tween-80) was 102 % of control; the T/C (dose: 15.0 mg/kg/injection, schedule: Q01DX009 (ip), vehicle: saline with Tween-80) was 103 % of control.

In the case of `Cc1cccc(NNC(=S)Nc2ccccc2)c1`, the T/C is 95 % of control (dose: 100.0 mg/kg/injection, schedule: Q04DX003 (ip), vehicle: saline with Tween-80); 100 % of control (dose: 200.0 mg/kg/injection, schedule: Q04DX003 (ip), vehicle: saline with Tween-80); 90 % of control (dose: 400.0 mg/kg/injection, schedule: Q04DX003 (ip), vehicle: saline with Tween-80).

As to `CC(=O)OC(C(=O)CBr)C(OC(C)=O)C(OC(C)=O)C(=O)CBr` (stereo unspecified), the T/C (dose: 12.5 mg/kg/injection, schedule: Q01DX009 (ip), vehicle: Klucel (hydroxypropylcellulose) (HPC)) was 114 % of control and the T/C (dose: 25.0 mg/kg/injection, schedule: Q01DX009 (ip), vehicle: Klucel (hydroxypropylcellulose) (HPC)) was 96 % of control.

Turning to `CN(C)c1ccc(C=Nc2ccc3ccc4cccc5ccc2c3c45)cc1`, the T/C by setting is: under setting [6], 101 % of control; under setting [4], 102 % of control; under setting [5], 102 % of control.

`CNC(=O)OCc1c(COC(=O)NC)c(-c2ccc(S(=O)(=O)c3ccccc3)cc2)n(C)c1C`: the T/C runs as follows: (dose: 12.5 mg/kg/injection, schedule: Q01DX009 (ip), vehicle: distilled water + Tween-80) 154 % of control; (dose: 40.0 mg/kg/injection, schedule: Q01DX009 (ip), vehicle: distilled water + Tween-80) 153 % of control; (dose: 50.0 mg/kg/injection, schedule: Q01DX009 (ip), vehicle: distilled water + Tween-80) 100 % of control; (dose: 80.0 mg/kg/injection, schedule: Q01DX009 (ip), vehicle: distilled water + Tween-80) 153 % of control.

In the case of `Cc1ccc(NC(=O)OCCN(C)C(=O)Nc2ccc(C)cc2C)c(C)c1`, the T/C by setting is: (dose: 30.0 mg/kg/injection, schedule: Q01DX005 (ip), vehicle: Klucel (hydroxypropylcellulose) (HPC)) 98 % of control; under setting [7], 103 % of control and 94 % of control; under setting [8], 98 % of control; under setting [9], 86 % of control.

`COC(=O)NC1=Nc2ccc(Cl)cc2NS1`: the T/C is, setting by setting: (dose: 12.5 mg/kg/injection, schedule: Q01DX005 (ip), vehicle: Klucel (hydroxypropylcellulose) (HPC)) 102 % of control; (dose: 25.0 mg/kg/injection, schedule: Q01DX005 (ip), vehicle: Klucel (hydroxypropylcellulose) (HPC)) 100 % of control; under setting [2], 112 % of control and 97 % of control.

For the compound `COc1ccc(C(C)c2cc3c(cc2OCC(=O)O)OCO3)cc1` (stereo unspecified), the T/C is, setting by setting: under setting [10], 105 % of control; under setting [11], 88 % of control; (dose: 200.0 mg/kg/injection, schedule: Q01DX005 (ip), vehicle: saline with Tween-80) 90 % of control.

Consider `O=C1c2cccc3cc([N+](=O)[O-])cc(c23)C(=O)N1CCCN(CCO)CCO`, for which the T/C (dose: 25.0 mg/kg/injection, schedule: Q01DX005 (ip), vehicle: saline with Tween-80) was 105 % of control; the T/C under setting [10] was 107 % of control; the T/C under setting [11] was 108 % of control and 121 % of control.

`O=C(O)c1cccc2c1C(=O)c1cccc3snc-2c13`: the T/C is, setting by setting: under setting [2], 101 % of control; under setting [3], 99 % of control; under setting [12], 109 % of control.

As to `CC1NS(=O)(=O)c2ccccc2C1=O` (stereo unspecified), the T/C is 100 % of control (dose: 100.0 mg/kg/injection, schedule: Q04DX003 (ip), vehicle: saline); 101 % of control (dose: 200.0 mg/kg/injection, schedule: Q04DX003 (ip), vehicle: saline); 108 % of control (dose: 400.0 mg/kg/injection, schedule: Q04DX003 (ip), vehicle: saline).

On to `CC1=CC(=O)C2(C)C1=CC(=O)C13COC4OC(CC1C4=O)C(O)C23` (stereo unspecified), for which the T/C is, setting by setting: (dose: 1.0 mg/kg/injection, schedule: Q01DX009 (ip), vehicle: Klucel (hydroxypropylcellulose) (HPC)) 97 % of control; (dose: 2.0 mg/kg/injection, schedule: Q01DX009 (ip), vehicle: Klucel (hydroxypropylcellulose) (HPC)) 94 % of control; (dose: 4.0 mg/kg/injection, schedule: Q01DX009 (ip), vehicle: Klucel (hydroxypropylcellulose) (HPC)) 98 % of control; (dose: 8.0 mg/kg/injection, schedule: Q01DX009 (ip), vehicle: Klucel (hydroxypropylcellulose) (HPC)) 102 % of control.

In the case of `COc1cc2c(cc1NC(=O)N(CCCl)N=O)-c1ccccc1C2`, under “dose: 350.0 mg/kg/injection, schedule: Q04DX003 (ip), vehicle: Klucel (hydroxypropylcellulose) (HPC)”, the T/C is 163 % of control.

Turning to `CCCCCCCCCC(=O)C(=O)c1ccc(O)cc1O`, the T/C under setting [6] was 94 % of control, the T/C under setting [4] is 93 % of control and the T/C under setting [5] was 94 % of control.

For `CNC(C)C(O)c1ccc(O)cc1` (stereo unspecified), the T/C by setting is: (dose: 50.0 mg/kg/injection, schedule: Q01DX009 (ip), vehicle: saline) 102 % of control and 92 % of control; (dose: 100.0 mg/kg/injection, schedule: Q01DX009 (ip), vehicle: saline) 102 % of control and 105 % of control; (dose: 200.0 mg/kg/injection, schedule: Q01DX009 (ip), vehicle: saline) 102 % of control and 108 % of control; (dose: 400.0 mg/kg/injection, schedule: Q01DX009 (ip), vehicle: saline) 102 % of control and 98 % of control.

For the compound `C=C1C(=O)OC2C(OC(=O)CC(C)C)CCCC12` (stereo unspecified), the T/C was 94 % of control under setting [7], 92 % of control under setting [8] and 92 % of control under setting [9].

Turning to `COc1cccc(C(=O)c2ccc(OC)cc2C(=O)O)c1`, the T/C runs as follows: under setting [2], 95 % of control; under setting [3], 101 % of control; under setting [12], 97 % of control.

Regarding `CCN(CC)C(=O)c1c2nc3c(C(=O)N(CC)CC)ccc(C)c3oc-2c(C)c(=O)c1N`, the T/C is 98 % of control under setting [1] and 88 % of control under setting [13].

With `COC(=O)c1cc(C)c(C)cc1NC1OC(CO)C(O)C1O` (stereo unspecified), the T/C by setting is: under setting [1], 101 % of control; under setting [13], 95 % of control; (dose: 240.0 mg/kg/injection, schedule: Q01DX005 (ip), vehicle: saline with Tween-80) 97 % of control.
